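How tested: cells in 96-well plates exposed to compound for 48 hours at five concentrations. GI50 is the concentration that inhibits growth by half.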 The source made the active and inactive calls. Cut-off read from the data, not from the text of the source: active = GI50 up to about 1.1 µM and inactive = higher.
Key:
Assay in all cases: NCI-60 cell line screen, 48 h
[1] = test system: SK-MEL-28
[2] = test system: OVCAR-4
[3] = test system: OVCAR-8
[4] = test system: TK-10
[5] = test system: SNB-19
[6] = test system: UACC-257
[7] = test system: M14
[8] = test system: SNB-75
[9] = test system: SF-295
[10] = test system: SW-620
[11] = test system: RXF 393
[12] = test system: KM12
[13] = test system: A498

Measured: GI50

O=C1C(Cl)C(c2ccc(Cl)cc2)N1n1cnc2ccccc2c1=O (configuration not stated)
inactive: [1] > 100 µM | [2] > 100 µM | [3] > 100 µM | [4] > 100 µM | [5] > 100 µM | [6] > 100 µM | [7] > 100 µM | [8] 26.2 µM | [9] 82.8 µM | [10] 77.8 µM | [11] 76 µM | [12] 24.8 µM

C=C1C(=O)C23C(O)C1CCC2C12CO[C@]3(O)[C@@H](O)C1C(C)(C)CCC2O (some centres not stated)
inactive: [1] 4.45 µM | [3] 7.5 µM | [13] 21.2 µM | [4] 19.4 µM | [5] 14.8 µM | [6] 11.6 µM | [7] 11.6 µM | [8] 15.7 µM | [9] 16.7 µM | [10] 5.81 µM | [11] 7.93 µM | [12] 16.1 µM

CC(=O)Nc1c(C)ccc2c1C(=O)c1ccccc1C2=O
inactive: [2] > 100 µM | [3] 82.6 µM | [13] > 100 µM | [4] > 100 µM | [6] > 100 µM | [7] > 100 µM | [8] 45.7 µM | [9] > 100 µM | [10] > 100 µM | [11] > 100 µM | [12] > 100 µM

CCOC(=O)c1cc(OC(=O)CC)c2c(OC)ccc(OC)c2c1
inactive: [1] > 100 µM | [2] 52.4 µM | [4] 47.1 µM | [5] 89.3 µM | [8] 11.4 µM | [10] 66.5 µM | [11] 30.5 µM | [12] 42.7 µM

N=C(N)Nc1nc2cc(N)ccc2o1
inactive: [1] > 100 µM | [2] > 100 µM | [3] > 100 µM | [13] > 100 µM | [4] > 100 µM | [5] > 100 µM | [6] > 100 µM | [7] > 100 µM | [8] > 100 µM | [9] > 100 µM | [10] > 100 µM | [12] > 100 µM

CN1CCN(C)C1c1cccc(C2N(C)CCN2C)c1
inactive: [1] > 100 µM | [2] > 100 µM | [13] > 100 µM | [5] > 100 µM | [7] > 100 µM | [8] 48.2 µM | [9] > 100 µM | [11] > 100 µM | [12] > 100 µM

O=S1(=O)OCCOS(=O)(=O)C1(I)I
inactive: [1] 19.9 µM | [2] 19.7 µM | [3] 20.7 µM | [13] 16.7 µM | [4] 27.3 µM | [5] 26.5 µM | [6] 22.6 µM | [7] 20 µM | [8] 18.1 µM | [9] 26.3 µM | [10] 16.8 µM | [12] 18.9 µM

COc1ccc(/C(=N/Nc2ccccc2)C(c2ccc(OC)cc2)C2OC(=O)c3ccccc32)cc1 (configuration not stated)
inactive: [2] > 100 µM | [3] > 100 µM | [13] > 100 µM | [5] > 100 µM | [6] 76 µM | [7] > 100 µM | [8] 48.9 µM | [9] > 100 µM | [11] > 10 µM

CCCN1CN(C(C(=O)N[C@@H]2C(=O)N3C(C(=O)O)=C(C)CSC23)c2ccc(O)cc2)CSC1=S (some centres not stated)
inactive: [1] > 100 µM | [2] > 100 µM | [3] > 100 µM | [13] > 100 µM | [4] > 100 µM | [5] > 100 µM | [6] > 100 µM | [7] > 100 µM | [8] > 100 µM | [9] > 100 µM | [10] 14.2 µM | [12] > 100 µM

CC(C)(C)S(=O)OC12CC3CC(CC(C3)C1)C2 (configuration not stated)
inactive: [1] > 100 µM | [2] > 100 µM | [3] > 100 µM | [4] > 100 µM | [5] > 100 µM | [7] > 100 µM | [8] 33.8 µM | [9] > 100 µM | [10] > 100 µM | [11] > 100 µM | [12] > 10 µM

CCC1(N=[N+]=[N-])C(=O)Nc2cc(C)ccc2C1=O (configuration not stated)
inactive: [1] > 100 µM | [2] > 100 µM | [3] > 100 µM | [13] > 100 µM | [4] > 100 µM | [5] > 100 µM | [6] 96.4 µM | [7] 76.7 µM | [8] > 100 µM | [9] > 100 µM | [10] > 100 µM | [12] > 100 µM

CCOc1ccc(NC(=O)C(=O)C(C(=O)c2ccc3ccccc3c2)C2OC(=O)c3ccccc32)cc1 (configuration not stated)
inactive: [1] 13.6 µM | [2] 12.5 µM | [3] 17.6 µM | [13] 15.1 µM | [4] 50.7 µM | [5] 9.62 µM | [6] 17 µM | [7] 18.5 µM | [8] 15.7 µM | [10] 15.6 µM | [12] 32.7 µM

C/N=C(/NC)N(C)c1nc(=[N+](C)C)ss1.[O-][Cl+3]([O-])([O-])[O-]
inactive: [1] > 100 µM | [3] > 100 µM | [13] 39.4 µM | [4] > 100 µM | [5] > 100 µM | [6] > 100 µM | [7] > 100 µM | [9] > 100 µM | [10] > 100 µM | [11] > 100 µM | [12] > 100 µM

From ChEMBL document CHEMBL1201862, “PubChem BioAssay data set” (2004)
